# Source: ChEMBL document CHEMBL5058564, “EUbOPEN Chemogenomics Library 2 (Incucyte)” (2022)
# Key:
# Format in all cases: toxicity, cell-based
# [1] = tested on: HEK-293T; test: Incucyte cell viability with HEK293T; conditions: human, 10 µM, compound concentration 10 uM
# [2] = tested on: Fibroblast; test: Incucyte cell viability with human fibroblast; conditions: 10 µM, compound concentration 10 uM
# [3] = tested on: U2OS; test: Incucyte cell viability with U2OS; conditions: human, 10 µM, compound concentration 10 uM
# [4] = 6 h, replicate number 1, timepoint 6 hours
# [5] = 12 h, replicate number 1, timepoint 12 hours
# [6] = 18 h, replicate number 1, timepoint 18 hours
# [7] = 24 h, replicate number 1, timepoint 24 hours
# [8] = 6 h, replicate number 2, timepoint 6 hours
# [9] = 12 h, replicate number 2, timepoint 12 hours
# [10] = 18 h, replicate number 2, timepoint 18 hours
# [11] = 24 h, replicate number 2, timepoint 24 hours
# [12] = 0 h, replicate number 1, timepoint 0 hours
# [13] = 0 h, replicate number 2, timepoint 0 hours
# Also: unitless GR value; below 1 slowed growth and below 0 cell loss.
SMILES,"Growth Rate [1, 4]","Growth Rate [1, 5]","Growth Rate [1, 6]","Growth Rate [1, 7]","Growth Rate [2, 4]","Growth Rate [2, 5]","Growth Rate [2, 9]","Growth Rate [2, 6]","Growth Rate [2, 10]","Growth Rate [2, 7]","Growth Rate [2, 11]","Growth Rate [3, 12]","Growth Rate [3, 13]","Growth Rate [3, 4]","Growth Rate [1, 8]","Growth Rate [3, 5]","Growth Rate [3, 6]","Growth Rate [3, 10]","Growth Rate [3, 7]","Growth Rate [1, 13]",also measured
O=c1ccc2ccc(OCCCCN3CCN(c4cccc5sccc45)CC3)cc2[nH]1 [BREXPIPRAZOLE],-0.63,-0.43,-0.32,-0.26,-0.55,0.1,0.53,0.08,0.81,0.3,0.76,0.42,-0.19,0.98,,,,,,,"Growth Rate [2, 8]: 0.52"
O=C1NCc2ccc3c(-c4cccc(Cl)c4)c[nH]c3c21,-0.52,-0.31,-0.21,-0.19,-0.99,-0.86,-0.4,-0.65,-0.18,-0.39,0.01,-0.28,0.01,0.17,-0.56,0.07,0.03,-0.24,-0.13,,"Growth Rate [1, 9]: -0.09; Growth Rate [1, 10]: -0.1; Growth Rate [1, 11]: -0.07; Growth Rate [2, 8]: -0.83; Growth Rate [3, 8]: -0.08; Growth Rate [3, 9]: -0.24; Growth Rate [3, 11]: -0.28"
CS(=O)(=O)N1CCCC(NC(=O)[C@H](CCC2CCCCC2)NC(=O)c2ccc(CNc3ncnc4c3nnn4-c3ccccc3)cc2)C1 (some centres undefined) [SR-301],-0.5,-0.33,-0.23,-0.11,-0.33,-0.47,,-0.48,,-0.39,,0.63,,0.78,,0.94,0.6,0.89,0.6,0.12,"Growth Rate [2, 13]: -0.06"
CN1CCc2cc(Cl)c(O)cc2[C@@H](c2ccccc2)C1.Cl,,,,,-0.06,1,,,,0.88,,,-1,,0.46,,,0.86,,0.66,"Growth Rate [1, 9]: 0.71; Growth Rate [3, 8]: 0.49; Growth Rate [3, 11]: 0.95"
Cc1ccc(CNc2ncnc3ccc(-c4ccc(CO)o4)cc23)o1,,,,,,,,,,,,-0.73,,,,,,,,,"Growth Rate [1, 12]: 0.47; Growth Rate [2, 12]: -0.65; Growth Rate [2, 13]: 0.65"
COC(=O)[C@H](CCCNC(=N)N)NC(=O)CCCc1c(-c2ccccc2)[nH]c2c(F)cc(F)cc12.O=C(O)C(F)(F)F,0.68,0.53,0.64,0.66,,,0.65,,0.38,,0.46,-0.03,,0.46,0.4,0.64,0.8,,,0.81,"Growth Rate [1, 12]: 0.87; Growth Rate [1, 9]: 0.32; Growth Rate [1, 10]: 0.5; Growth Rate [1, 11]: 0.53; Growth Rate [2, 12]: 0.79; Growth Rate [2, 13]: 0.86; Growth Rate [2, 8]: 0.39"
O=C(NCC(=O)N1CC[C@H](N[C@H]2CC[C@@](O)(c3ccc(-c4ncccn4)cn3)CC2)C1)c1cccc(C(F)(F)F)c1 [PF-4136309],1,0.73,,0.99,0.01,0.15,,0.3,,0.41,,0.62,,,0.86,,1,0.8,0.7,0.66,"Growth Rate [2, 13]: 0.71; Growth Rate [3, 8]: 0.3; Growth Rate [3, 9]: 0.53; Growth Rate [3, 11]: 0.9"
NC(=O)c1cc2c(-c3ccc(C(=O)NCc4ccnc(Cl)c4)s3)cccc2s1,-0.01,-0.09,-0.18,-0.15,-0.81,-0.77,-0.62,-0.53,-0.15,-0.39,0.32,,-0.83,-0.27,0.1,-0.23,0.07,0,-0.11,,"Growth Rate [1, 9]: 0.13; Growth Rate [1, 10]: -0.06; Growth Rate [1, 11]: 0.01; Growth Rate [2, 8]: -0.97; Growth Rate [3, 8]: 0.04; Growth Rate [3, 9]: 0.03; Growth Rate [3, 11]: -0.08"
CN(C)c1ccnc2sc3c(=O)n(N4CCCCCC4)cnc3c12,,,,,-0.22,-0.14,0.1,-0.36,0.11,-0.42,-0.22,,-1,0.61,0.98,0.54,0.51,0.91,0.78,0.47,"Growth Rate [1, 12]: 0.91"
CC[S+]([O-])c1nc(-c2cccc(OCc3ccccc3)c2)cc(C(F)(F)F)n1 (centres undefined),-0.65,-0.45,-0.27,-0.13,-0.79,-0.65,-0.52,-0.48,,-0.4,-0.5,,-1,-0.91,-0.82,-0.48,-0.19,0.03,-0.09,,"Growth Rate [1, 9]: -0.65; Growth Rate [1, 10]: -0.43; Growth Rate [1, 11]: -0.24; Growth Rate [2, 8]: -0.73; Growth Rate [3, 8]: -0.17; Growth Rate [3, 9]: -0.16; Growth Rate [3, 11]: 0.16"
Cl.Cl.NCCc1c[nH]cn1 [HISTAMINE DIHYDROCHLORIDE],0.99,0.79,0.83,0.82,,0.77,1,0.99,0.87,0.52,0.76,0.04,0.37,0.35,,0.76,0.74,,,0.62,"Growth Rate [1, 12]: 0.54; Growth Rate [1, 10]: 0.79; Growth Rate [1, 11]: 0.75; Growth Rate [2, 12]: 0.45; Growth Rate [3, 9]: 0.97"
